Reference: publication PMC8602401 (Scientific Reports, 2021)
Read-outs that look alike come from different tables or passages of the source. *1 amine or outer side, *2 acyl side, *3 side chain or, on linkers, in order; H or OH if unused. Where a SMILES comes first, the peptide text is derived from it. Side-chain parts run from the residue outwards. [ ]: non-standard residue; d: D form. The star is where a group is joined. γGlu = O=C(O)[C@H](CCC(=O)[*:2])N[*:1]; αMeF = C[C@](N)(Cc1ccccc1)C(=O)O; αMeK = C[C@](N)(CCCCN)C(=O)O; Lauroyl = CCCCCCCCCCCC(=O)*; αMeS = C[C@](N)(CO)C(=O)O; AEEA = NCCOCCOCC(=O)O; Aib = CC(C)(N)C(=O)O

Columns and labels:
human GLP-1R = target: T1, human GLP-1R (Homo sapiens, UniProt P43220); experiment: cAMP accumulation assay in CHO cells stably expressing human GLP-1R; type: cell-based; details: geometric mean (SEM); for EC50: 30 min at room temperature, HTRF cAMP, n ≥ 3 independent experiments
T1 construct: expressed in transfected cells
T1 sequence (P43220 24-463): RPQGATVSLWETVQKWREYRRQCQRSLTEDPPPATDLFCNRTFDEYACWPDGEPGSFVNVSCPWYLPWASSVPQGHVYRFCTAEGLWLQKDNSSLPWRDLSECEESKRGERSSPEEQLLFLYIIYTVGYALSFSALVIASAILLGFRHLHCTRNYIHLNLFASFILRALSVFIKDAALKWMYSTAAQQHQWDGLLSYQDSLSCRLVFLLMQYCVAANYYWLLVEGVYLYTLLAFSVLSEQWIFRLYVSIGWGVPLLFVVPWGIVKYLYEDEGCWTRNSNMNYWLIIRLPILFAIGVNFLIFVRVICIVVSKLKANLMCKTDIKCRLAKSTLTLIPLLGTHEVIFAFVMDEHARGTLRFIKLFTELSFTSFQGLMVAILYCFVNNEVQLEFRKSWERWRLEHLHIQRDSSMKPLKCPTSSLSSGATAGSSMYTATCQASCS
Experimental: All reagents for cAMP assays were obtained from Sigma-Aldrich unless otherwise specified.
Cells were suspended in assay buffer and combined with serially diluted peptides at room temperature for 30 min. cAMP levels were measured using a cAMP dynamic 2 HTRF kit (Cisbio, Codolet, France), following the manufacturer’s two-step protocol, on an EnVision plate reader (PerkinElmer, Waltham, MA, USA). […] The transformed data were analyzed by four-parameter logistic fit to determine EC50 values using GraphPad Prism 6 (GraphPad Software, San Diego, CA, USA).

C57Bl/6 J mice = experiment: Acute food intake in C57Bl/6J mice; type: in vivo, mouse; details: versus placebo
Experimental: Male C57Bl/6 J mice 8–10 weeks of age (Jackson Laboratories, Bar Harbor, ME, USA) were single-housed in the BioDAQ (Research Diets, New Brunswick, NJ, USA) food monitoring system with ad libitum access to standard chow and water. Mice were randomized into groups of 6–9 per group on baseline 24-h food intake. On the first study day, mice were fasted for 6 h and then received a single subcutaneous dose of test peptide or placebo (50 mM Tris–HCl, 150 mM mannitol, 0.02% polysorbate 80; pH 8.0). Food intake was monitored over the next 48 h.

[1] = Bioavailability after intraduodenal administration with permeation enhancers in rats; type: in vivo, rat
Experimental: Male Sprague Dawley rats (Charles River, Shrewsbury, MA, USA) weighing 250–275 g were housed with ad libitum access to standard chow and water. Test peptides were administered via either an intravenous or a duodenal catheter (4 rats per group) after overnight fasting, and food was returned following 4 h blood collection. Blood was collected via a jugular vein catheter at − 5, 15 and 30 min and 1, 2, 4, 8 and 24 h after intravenous dosing, or for intraduodenal groups at 15 min predose and 0.5, 1, 2, 4, 8, 24 and 48 h postdose. Blood was collected in K2EDTA tubes and kept on wet ice prior to 10 min centrifugation (3000 × g) at 5 °C ± 3 °C. Plasma samples were stored at − 70 °C until analysis.
Fifty or seventy μL aliquots of K2EDTA plasma samples were precipitated with 75% acetonitrile (Sigma-Aldrich) in water (J.T. Baker, Phillipsburg, NJ, USA) (v/v) and centrifuged at 2000 × g. The supernatant was dried under nitrogen at 60 °C, then cooled. Samples were reconstituted in 20% acetonitrile in water (v/v). […] Gradient separation was performed with water and 0.2% formic acid (Thermo Fisher Scientific, Waltham, MA, USA) as mobile phase A, and acetonitrile with 0.2% formic acid as mobile phase B. The method was qualified for the quantification range of 1–1000 ng/mL with accuracy and precision of ± 20%, except for at the lower limit of quantification when the accuracy and precision were ± 25%. Plasma concentrations were subject to noncompartmental analysis consistent with the route of administration using Phoenix WinNonlin (version 7.0, Certara, Princeton, NJ, USA).

[2] = Pharmacokinetics of oral tablets in dogs; type: in vivo; details: oral tablets 20 mg/dog, semaglutide: 300 mg SNAC, uncoated, MEDI7219: 100 mg NaCDC and 200 mg PG, pH 5.5 enteric, n = 9

CCCCCCCCCCCC(=O)N[C@@H](CCC(=O)NCCOCCOCC(=O)NCCOCCOCC(=O)NCCCC[C@H](NC(=O)[C@H](C)NC(=O)[C@@H](NC(=O)[C@](C)(Cc1ccccc1)NC(=O)[C@H](CCC(=O)O)NC(=O)[C@](C)(CCCCN)NC(=O)[C@H](C)NC(=O)[C@H](C)NC(=O)[C@H](CCC(=O)O)NC(=O)CNC(=O)[C@H](CCC(=O)O)NC(=O)[C@H](CC(C)C)NC(=O)[C@H](CCCCNC(=O)COCCOCCNC(=O)COCCOCCNC(=O)CC[C@H](NC(=O)CCCCCCCCCCC)C(=O)O)NC(=O)[C@H](CO)NC(=O)[C@](C)(CO)NC(=O)[C@@H](NC(=O)[C@H](CC(=O)O)NC(=O)[C@H](CO)NC(=O)[C@@H](NC(=O)[C@](C)(Cc1ccccc1)NC(=O)[C@H](CO)NC(=O)CNC(=O)[C@H](CCC(=O)O)NC(=O)C(C)(C)NC(=O)[C@@H](N)Cc1c[nH]cn1)[C@@H](C)O)C(C)C)[C@@H](C)CC)C(=O)N[C@H](C(=O)N[C@H](C(=O)N[C@@H](CCC(=O)O)C(=O)NCC(=O)NCC(N)=O)C(C)C)C(C)C)C(=O)O [MEDI7219] (H-H[Aib]EGS[αMeF]TSDV[αMeS]SK([AEEA-AEEA-γGlu-Lauroyl])LEGEAA[αMeK]E[αMeF]IAK([AEEA-AEEA-γGlu-Lauroyl])VVEGG-NH2)
CHO-hGLP-1R cAMP 0.1% BSA Effect at max. concentration (human GLP-1R; 0.1% BSA, % activation, 80 nM native GLP-1 defines maximum effect): 101.7 (0.5) % | EC50 (human GLP-1R; 4.4% HSA, read-out: CHO-hGLP-1R cAMP 4.4% HSA EC50): 0.398 nM | CHO-hGLP-1R cAMP 4.4% HSA Effect at max. concentration (human GLP-1R; 4.4% HSA, % activation, 80 nM native GLP-1 defines maximum effect): 94.3 (1.8) % | EC50 (human GLP-1R; CHO-hGLP-1R cAMP 0.1% BSA EC50, 0.1% BSA): 0.0034 nM | 24-hour food intake, decrease (↓) in Fig. 3a (C57Bl/6 J mice; subcutaneous 0.3 nmol/kg): 12.6% | 24-hour food intake, decrease (↓) in Fig. 3a (C57Bl/6 J mice; subcutaneous 1 nmol/kg): 18.0% | 24-hour food intake, decrease (↓) in Fig. 3a (C57Bl/6 J mice; subcutaneous 3 nmol/kg): 39.4% | fold higher mean bioavailability than semaglutide ([1]; intraduodenal with permeation enhancers): 13 fold | mean bioavailability (%F) ([1]; single intraduodenal administration with permeation enhancers (NaCDC and PG), n = 4 per group): 1.01% | AUC0-inf ([2]; arithmetic mean (% CV)): 13,500 (54.2) ng·h/mL | CL/F (oral clearance) ([2]; arithmetic mean (% CV)): 1,880 (52.1) mL/h | Cmax ([2]; arithmetic mean (% CV)): 1,450 (63.2) ng/mL | F (bioavailability, systemic fraction) ([2]; arithmetic mean (% CV)): 5.92 (54.2) % | Tmax ([2]; median (min–max)): 1.5 (1.0–4.5) hours | t½ ([2]; plasma, LC/MS, arithmetic mean (% CV)): 9.8 (13.2) hours
